The values below come from patent publication US7056891B2 (priority 2000, dated 2006).

Assay [1] concerns S. aureus MN8. In kind it is cell-based, Staphylococcus aureus. The following applies: 24 hours at 35° C.
Assay [2] concerns TSST-1. In kind it is cell-based, S. aureus MN8.

Read-outs that look alike come from different tables or passages of the source.

Take Laureth-4: the “Final [S. aureus]” value in assay [1] is recorded as 4.57 x10^9 CFU/ml. Further, in assay [2] (24 hours at 35° C.), the “TSST-1” value stood at 531.8 ng/mL.
For the substance PPG-5 Laureth-5, the “Final [S. aureus]” value in assay [1] is given as 3.82 x10^9 CFU/ml. In addition, in assay [2], the “TSST-1” value was found to be 609.2 ng/mL.
Consider Steareth-2, for which the “Final [S. aureus]” value in assay [1] was 5.76 x10^9 CFU/ml. The “TSST-1” value in assay [2] (24 hours at 35° C.) is 680.7 ng/mL.
